The supplement of paper PMC10307832

Tests used:
Assay in all cases: relative viability (nuclei count vs DMSO), 5 days (fraction); higher = more cells survive
Venetoclax + Lapatinib = compound: CC1(C)CCC(CN2CCN(c3ccc(C(=O)NS(=O)(=O)c4ccc(NCC5CCOCC5)c([N+](=O)[O-])c4)c(Oc4cnc5[nH]ccc5c4)c3)CC2)=C(c2ccc(Cl)cc2)C1 [Venetoclax] + CS(=O)(=O)CCNCc1ccc(-c2ccc3ncnc(Nc4ccc(OCc5cccc(F)c5)c(Cl)c4)c3c2)o1 [Lapatinib] (partner 2 µM)
Outline: (§1)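 Relative viability is defined as nuclei in treated wells over nuclei in vehicle wells. Duplicate plates were run and medians reported. Lung cancer cell lines in 1536-well plates were dosed by pin tool one day after seeding, with one drug or with a fixed anchor-drug dose plus five library-drug doses (not always all listed) in √10 steps, and nuclei were counted after 5 days.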

[1] = compound: Cn1cnc2c(F)c(Nc3ccc(Br)cc3Cl)c(C(=O)NOCCO)cc21 [Selumetinib] + CC(=O)c1c(C)c2cnc(Nc3ccc(N4CCNCC4)cn3)nc2n(C2CCCC2)c1=O [Palbociclib] (partner 0.5 µM)
Outline: as §1

Selumetinib + Luminespib = compound: Cn1cnc2c(F)c(Nc3ccc(Br)cc3Cl)c(C(=O)NOCCO)cc21 [Selumetinib] + CCNC(=O)c1noc(-c2cc(C(C)C)c(O)cc2O)c1-c1ccc(CN2CCOCC2)cc1 [Luminespib] (partner 0.01 µM)
Outline: as §1

Selumetinib + Phenformin = compound: Cn1cnc2c(F)c(Nc3ccc(Br)cc3Cl)c(C(=O)NOCCO)cc21 [Selumetinib] + N=C(N)NC(=N)NCCc1ccccc1 [Phenformin] (partner 250 µM)
Outline: as §1

Cell Line	relative viability (Venetoclax + Lapatinib; first compound 0.01 µM)	relative viability (Venetoclax + Lapatinib; first compound 0.03162 µM)	relative viability (Venetoclax + Lapatinib; first compound 0.1 µM)	relative viability (Venetoclax + Lapatinib; first compound 0.3162 µM)	relative viability (Venetoclax + Lapatinib; first compound 1 µM)	relative viability ([1]; first compound 0.02 µM)	relative viability ([1]; first compound 0.06325 µM)	relative viability ([1]; first compound 0.2 µM)	relative viability ([1]; first compound 0.6325 µM)	relative viability (Selumetinib + Luminespib; first compound 0.02 µM)	relative viability (Selumetinib + Luminespib; first compound 0.06325 µM)	relative viability (Selumetinib + Luminespib; first compound 0.2 µM)	relative viability (Selumetinib + Luminespib; first compound 0.6325 µM)	relative viability (Selumetinib + Phenformin; first compound 0.02 µM)	relative viability (Selumetinib + Phenformin; first compound 0.06325 µM)	relative viability (Selumetinib + Phenformin; first compound 0.2 µM)	relative viability (Selumetinib + Phenformin; first compound 0.6325 µM)
NCI-H2085	0.658	0.849	0.749	0.821	0.747	0.464	0.462	0.415	0.355	0.527	0.402	0.376	0.326	0.637	0.623	0.602	0.481
COR-L23	0.921	0.957	0.983	0.922	0.938	0.311	0.289	0.301	0.241	0.644	0.637	0.721	0.409	0.464	0.469	0.519	0.463
HCC-827	0.234	0.216	0.174	0.191	0.233	0.497	0.469	0.465	0.401	0.621	0.694	0.438	0.244	0.4	0.4	0.42	0.409
NCI-H1437	0.766	0.873	0.758	0.742	0.703	0.319	0.292	0.258	0.224	1.15	1.13	1.03	0.782	0.269	0.232	0.216	0.243
PC-14	0.367	0.328	0.291	0.361	0.323	0.482	0.369	0.363	0.309	0.147	0.177	0.163	0.151	0.516	0.507	0.529	0.447
NCI-H2228	1.15	1.29	1.21	1.09	0.954	0.566	0.516	0.669	0.481	0.154	0.14	0.125	0.193	0.254	0.284	0.219	0.21
BEN	0.745	0.781	0.735	0.626	0.613	0.466	0.53	0.462	0.509	0.28	0.83	0.404	0.347	0.281	0.315	0.252	0.257
LOU-NH91	0.757	0.843	0.737	0.778	0.75	0.583	0.611	0.546	0.535	0.381	0.302	0.329	0.359	0.674	0.69	0.688	0.661
EKVX	0.191	0.22	0.219	0.193	0.185	0.285	0.278	0.227	0.186	0.931	0.587	0.657	0.665	0.22	0.217	0.214	0.22
NCI-H1355	1.02	1.02	0.968	0.93	0.993	0.315	0.284	0.266	0.241	0.665	0.736	0.6	0.476	0.435	0.43	0.391	0.373
ABC-1	1.24	1.17	1.1	1.14	1.13	0.642	0.672	0.555	0.5	0.581	0.422	0.607	0.314	0.228	0.231	0.234	0.25
NCI-H727	0.904	1	0.857	0.791	0.753	0.473	0.517	0.489	0.423	0.257	0.241	0.206	0.267	0.455	0.381	0.375	0.355
NCI-H1666	0.536	0.664	0.519	0.624	0.515	0.669	0.649	0.699	0.668	0.996	0.829	0.943	0.757	0.506	0.534	0.569	0.565
NCI-H2126	0.738	0.731	0.734	0.769	0.73	0.333	0.265	0.35	0.333	0.839	0.756	0.792	0.782	0.526	0.453	0.466	0.434
NCI-H1793	0.677	0.758	0.443	0.613	0.551	0.267	0.293	0.249	0.199	0.15	0.163	0.154	0.184	0.364	0.349	0.316	0.273
COR-L 105	0.418	0.384	0.326	0.355	0.367	0.449	0.404	0.383	0.392	0.769	0.689	0.46	0.404	0.355	0.321	0.331	0.297
HARA	0.876	0.68	0.647	0.822	0.758	0.359	0.244	0.236	0.165	0.708	0.783	0.536	0.168	0.502	0.387	0.48	0.299
NCI-H2023	0.935	0.888	0.748	0.898	0.627	0.355	0.299	0.304	0.339	0.947	0.669	0.575	0.575	0.373	0.399	0.381	0.341
